Source: patent US20260265694A1, “USE OF A VITISIN COMPOUND FOR THE PRODUCTION OF HEMATOPOIETIC CELLS” (ETABLISSEMENT FRANCAIS DU SANG, priority 2022, published 2026)

Key:
[1] = tested on: SP cells (CD34+DCVlow) isolated from peripheral blood CD34+ cells; assay: ERYTHRO 1 PROTOCOL on sorted SP cells; assay type: cell-based, human; conditions: SPs, 10 μM, as early as D7, FIG. 4B
Description: SP cells are identifiable by virtue of their property of expelling certain dyes such as Hoescht or Dye Cycle Violet (DCV)). This expulsion takes place by means of […] ATP Binding Cassette (ABCG2) pumps (Brunet de la Grange et al., 2013). To identify SP cells within previously isolated CD34^+ cells, they are incubated with a DCV dye (5 μM) in DMEM^+ medium (Dulbecco's Modified Eagle's Medium (DMEM), 2% FCS, 1% HEPES) for 2 h at 37° C. and in the dark. After incubation, all manipulations up to final cell sorting are performed on ice and in PBS^+ medium (PBS, 2% FCS), a glucose- and calcium-depleted medium which stops the expulsion pumps. […] CD34^+ cells having a low fluorescence intensity for the DCV marker (CD34^+ SP cells) are analyzed (UV 350 nm or violet 405 nm), sorted and recovered using an ARIA cell sorter (Becton Dickinson). […]
In order to test the effect of vitisin B in this context, the culturing is performed in the absence and presence of vitisin B: • CTRL condition: Absence of vitisin B throughout the entire protocol. • Test condition: Presence of vitisin B at 5, 10, 15, 20 or 30 μM for the entire duration of the protocol (phase 1+phase 2). During the culture protocol, the differentiation product is analyzed by quantifying proliferation (counting) and analyzing erythrocyte differentiation markers by means of flow cytometry, using the markers CD71 and CD235a. c. […]

[2] = tested on: CMP isolated from peripheral blood CD34+ cells; assay: ERYTHRO 1 PROTOCOL on sorted CMP cells; assay type: cell-based, human; conditions: CMPs, 10 μM
Description: b. Isolation of CMP and MEP Progenitors The CD34^+ cells previously isolated via an immunomagnetic technique were marked with anti-CD34-BV421 (1:100 000), anti-CD45RA-BB517 (1:100 000), anti-CD123-Alexa647 (1.5:100 000) antibodies (BD Pharmingen) and a cocktail of anti-LIN-PE antibodies (2:100 000) for 15 minutes. The LIN cocktail antibodies are directed against markers specific to mature cells (CD2, CD3, CD4, CD7, CD8, CD10, CD11b, CD14, CD19, CD20, CD56, CD235a). This LIN cocktail thus allows enrichment in “LIN^neg” immature cells by depletion of mature cells. After incubation with these antibodies, the cells are rinsed with a solution of PBS^+ (PBS+2% Fetal Calf Serum (FCS)) and centrifuged (430×g, 10 min. 4° C.). After resuspension of the cells in PBS^+, CMPs with the phenotype CD34^+LIN^negCD123^+CD45RA^neg and MEPs with the phenotype CD34^+LIN^negCD123^negCD45RA^neg are sorted and harvested using an ARIA cell sorter (Manz et al., 2002). c. Isolation of BFU-E and CFU-E Progenitors Placental blood CD34^+ cells, previously isolated by immunomagnetic sorting, are marked with antibodies specific to surface antigens allowing them to target and discriminate BFU-E primitive erythrocyte progenitors, namely anti-CD34, anti-GPA, anti CD123 and anti-CD36 antibodies. Primitive erythrocyte progenitors (BFU-Es) are defined by the following phenotype: CD34^+CD123^negCD36^negGPA^neg. […]

Structure (SMILES): Oc1ccc(C2Oc3ccc(/C=C/c4cc(O)cc5c4[C@H](c4cc(O)cc(O)c4)[C@@H](c4ccc(O)cc4)O5)cc3C2c2cc(O)cc3c2C(c2cc(O)cc(O)c2)C(c2ccc(O)cc2)O3)cc1 (stereo in doubt) [vitisin B, 5-[(2R,2'S,3R,3'S)-5-[(1E)-2-[(2S,3S)-3-(3,5-Dihydroxyphenyl)-2,3-dihydro-6-hydroxy-2-(4-hydroxyphenyl)-4-benzofuranyl]ethenyl]-2,2′,3,3′-tetrahydro-6′-hydroxy-2,2′-bis(4-hydroxyphenyl)[3,4′-bibenzofuran]-3′-yl]-1,3-benzenediol]
- reduction relative to the control in CD71 membrane expression [1]: up to 40%
- erythrocyte differentiation (acquisition of the phenotype CD71+GPA+) ([2]; FIG. 4A): acceleration of erythrocyte differentiation
- reduction relative to the control in CD71 membrane expression ([2]; as early as D7, FIG. 4B): up to 40%
